Assays:
[1] = Plasma cholesterol and triglycerides in Zucker rats; format: in vivo, rat
From the text: (§1) Male C57BL/6 mice (Charles River, L'Arbresle, France) aged 6 weeks at the start of the experiments were randomly divided into groups of 6 animals such that body weight distribution was uniform. Mice were given a low-fat diet (UAR AO4), a high-fat diet (29% (m/m) coconut oil) or the same enriched diet supplemented with the test compounds. Obese male Zucker rats (fa/fa) or non obese rats (fa/+) aged 5 or 21 weeks (Charles River, L'Arbresle, France) were divided into groups of 8 animals selected such that the distribution of plasma cholesterol and triglyceride levels was uniform, and maintained on a standard diet. Animals were housed in a 12 hour light/dark cycle at a constant temperature of 20° C.±3° C. Animals had access to food and water ad libitum. Food intake and weight increase were recorded. The test compounds were suspended in carboxymethylcellulose and administered by gastric lavage at the indicated doses, once a day for 15 days. At the end of treatment, some animals underwent a glucose tolerance test as described hereinbelow. At the end of the experiment the other animals were weighed and sacrificed under anesthesia after a 5 hour fast. Blood was collected on EDTA. Plasma was prepared by centrifugation at 3000 rpm for 20 minutes. Liver samples were removed and stored frozen in liquid nitrogen for subsequent analysis.
Plasma lipid concentrations (total cholesterol and triglycerides) were determined by a colorimetric assay (Bio-Mérieux, Marcy l'Etoile, France) according to the supplier's instructions.

[2] = system: hepatic expression of ACO, CPT-I, CPT-II, Apo AI, Apo CIII genes; experiment: Hepatic gene expression (RT-PCR) in treated Sprague-Dawley rats; format: in vivo, rat; details: 300 mg/kg/d
Protocol: (§2) Sprague-Dawley or Wistar rats weighing 200 to 230 g (Charles River, L'Arbresle, France) were housed in a 12-hour light/dark cycle at a constant temperature of 20±3° C. After a 1-week acclimatization period, rats were weighed and distributed into groups of 8 animals selected such that the distribution of plasma cholesterol and triglyceride levels was uniform. The test compounds were suspended in carboxymethylcellulose and administered by gastric lavage at the indicated doses, once a day for 15 days. Animals had access to food and water ad libitum. At the end of the experiments, animals were weighed and sacrificed under anesthesia after a 5-hour fast. Blood was collected on EDTA. Plasma was isolated by centrifugation at 3000 rpm for 20 minutes. Liver samples were removed and stored frozen in liquid nitrogen until further analysis.
(§3) Total RNA was isolated from the liver fragments by extraction with a mixture of guanidine thiocyanate/phenol acid/chloroform as previously described (Raspé et al., J. Lipid Res. 40, 2099-2110, 1999). Messenger RNA was quantified by semi-quantitative or quantitative RT-PCR with the Light Cycler Fast Start DNA Master Sybr Green I kit (Hoffman-La Roche, Basel, Switzerland) on a Light Cycler System (Hoffman-La Roche, Basel, Switzerland). Primer pairs specific for the ACO, Apo CIII, Apo AI, CPT-I and CPT-II genes were used as probes. Primer pairs specific for the 36B4, β-actin and GAPDH genes were used as control probes (see table I).

[3] = Plasma insulin and glucose balance in Zucker rats; format: in vivo, rat; details: 300 mg/kg/d
From the text: as §1
Blood glucose was determined by a colorimetric enzymatic assay (Sigma Aldrich, St Louis, Mo., USA).
Insulinemia was assayed on serum or plasma collected on EDTA.

[4] = Plasma lipids and their distribution in lipoparticles in Sprague-Dawley rats; format: in vivo, rat; details: 300 mg/kg/d
Protocol: as §2
(§4) Lipid concentrations in plasma (total cholesterol and free cholesterol, triglycerides and phospholipids) were determined by a colorimetric assay (Bio-Mérieux, Marcy I'Etoile, France) according to the supplier's instructions. Plasma concentrations of apolipoproteins AII, AI and CIII were determined as previously described (Raspé et al., J. Lipid Res. 40, 2099-2110, 1999, Asset G et al., Lipids, 34, 39-44, 1999).
To separate the lipoproteins according to size, 300 μl of plasma were loaded on a Sepharose 6HR 10/30 column (Pharmacia, Uppsala, Sweden) and eluted at a constant flow rate (0.2 ml/minute) in PBS (pH 7.2). Optical density of the eluent was recorded at 280 nm. 0.3 ml fractions were collected. Lipid concentrations in the different fractions were determined by a colorimetric assay (Bio-Mérieux, Marcy I'Etoile, France) according to the supplier's instructions.

PPARα = PPARα activation in vitro in HepG2 cells (Gal4 DNA binding domain / PPARα ligand binding domain chimera); format: cell-based; details: dose-dependent, FIG. 11
Protocol: Plasmids pG5TkpGL3, pGal4-hPPARα, pGal4-hPPARγ and pGal4-φ have been described previously (Raspé et al., J. Lipid Res. 40, 2099-2110, 1999). The pGal4-mPPARα and pGal4-hPPARδ constructs were obtained by cloning PCR-amplified DNA fragments corresponding to the DEF domains of the mouse PPARα and human PPARδ nuclear receptors into the pGal4-φ vector.
HepG2 and RK13 cells were from ECACC (Porton Down, UK) and were grown in DMEM medium supplemented with 10% (VN) fetal calf serum, 100 U/ml penicillin (Gibco, Paisley, UK) and 2 mM L-glutamine (Gibco, Paisley, UK). The culture medium was replaced every two days. Cells were kept at 37° C. in a humidified 5% CO2/95% air atmosphere.
HepG2 and RK13 cells seeded in 24-well culture dishes at a rate of 10^5 cells/well for HepG2 cells and 5×10^4 cells/well for RK13 cells were transfected for 2 hours with the reporter plasmid pG5TkpGL3 (10 ng/well), the expression vectors pGal4-φ, pGal4-mPPARα, pGal4-hPPARα, pGal4-hPPARγ, pGal4-hPPARδ (10 ng/well) and the transfection efficiency control vector pRL-null (Promega Madison, Wis., USA) (20 ng/well) according to the protocol previously described (Raspé et al., J. Lipid Res. 40, 2099-2110, 1999) and incubated for 36 hours with the test compounds. […]

ABCA1 gene expression = experiment: ABCA1 and LXRα gene expression in human macrophages; format: cell-based; details: compound solubilized according to example 6, dose-dependent, FIG. 12
Protocol: THP-1 monocytes (ATCC, Rockville, Md., USA) were placed in 6-well culture dishes in the presence of PMA (phorbol myristate acetate) and fetal calf serum and incubated at 37° C. for 48 hours to allow them to differentiate to macrophages.
To obtain primary macrophages, mononuclear cells were isolated from human blood as previously described (Chinetti et al. Nat. Medecine 7(1), 53-58, 2001), placed in 6-well culture dishes and grown for 10 days in the presence of human serum to enable adherence and differentiation of the primary monocytes to macrophages.
Treatment with the different compounds was carried out for 48 hours in medium without human or fetal calf serum but supplemented with 1% Nutridoma HU serum (Boehringer).
Total RNA was extracted from treated macrophages with the mini RNeasy kit (Qiagen, Hilden, Germany) according to the supplier's instructions, assayed by spectrometry and quantified by quantitative RT-PCR with the Light Cycler Fast DNA Master Green I kit (Hoffman-La Riche, Basel, Switzerland) on a Light Cycler System (Hoffman-La Riche, Basel, Switzerland). Primer pairs specific for the ABCA1 and LXRα genes were used as probes.

[5] = Glucose tolerance test in Zucker rats; format: in vivo, rat; details: 300 mg/kg/d
From the text: as §1
Insulinemia was assayed on serum or plasma collected on EDTA. […]

[6] = Plasma cholesterol and triglycerides in Wistar rats; format: in vivo, rat; details: 300 mg/kg/d, after 14 days of treatment
Protocol: as §2, with “The test compounds were suspended in carboxymethylcellulose and administered by gastric lavage at the indicated doses, once a day for 15 days.” left out
as §4

[7] = system: hepatic expression of the ACO gene; experiment: Hepatic ACO gene expression in treated Wistar rats; format: in vivo, rat; details: 300 mg/kg/d, FIG. 9C
Protocol: as §2
as §3, with “Primer pairs specific for the 36B4, β-actin and GAPDH genes were used as control probes (see table I).” left out

**Q.** What does the source list for `CCCCCCCCCCCCCCSCC(=O)OCC(COC(=O)CSCCCCCCCCCCCCCC)OC(=O)CSCCCCCCCCCCCCCC` [Example 4a, 1,2,3-tritetradecylthioacetylglycerol]?
**A.** total plasma cholesterol (gradual increase versus control group) ([1]; 300 mg/kg/d, FIG. 6A): said increase was slower; plasma triglycerides (gradual increase versus control group) ([1]; 300 mg/kg/d, FIG. 6B): said increase was markedly slower; plasma triglyceride levels, dose-effect relation ([1]; doses of 0 to 600 mg/kg/d, FIG. 10): gradual dose-dependent decrease in triglyceride levels; hepatic expression of ACO ([2]; FIG. 5A): strong activation of hepatic expression of ACO; hepatic expression of CPT-I ([2]; FIG. 5A): smaller increase in the expression of the genes CPT-I and CPT-II; hepatic expression of CPT-II ([2]; FIG. 5A): smaller increase in the expression of the genes CPT-I and CPT-II; hepatic Apo AI expression ([2]; FIG. 5B): slight decrease in hepatic Apo AI expression; hepatic Apo CIII expression ([2]; FIG. 5B): more marked decrease in Apo CIII expression; plasma glucose levels ([3]; FIG. 7): glucose levels were equivalent in the two groups; insulin sensitivity ([3]; concluded from insulin and glucose levels): increased insulin sensitivity; plasma insulin levels (gradual compensatory increase versus control group) ([3]; especially after 14 days, FIG. 7): said increase was slower; cholesterol distribution in lipoparticles (size exclusion chromatography) ([4]; FIG. 2A): decrease in cholesterol in the different lipoparticle classes; total plasma cholesterol levels ([4]; FIG. 2B): reduction of total plasma cholesterol levels; triglyceride distribution in lipoparticles (size exclusion chromatography) ([4]; FIG. 3A): decrease in triglycerides in this lipoparticle class; plasma triglyceride levels ([4]; FIG. 3B): reduction of plasma triglyceride levels; phospholipid distribution in lipoparticles (size exclusion chromatography) ([4]; FIG. 4A): decrease in phospholipids in the different lipoparticle classes; total plasma phospholipid levels ([4]; FIG. 4B): reduction of total plasma phospholipid levels; PPARα activation in vitro (PPARα): very strong activation of the PPARα nuclear receptor; ABCA1 gene expression (ABCA1 gene expression): very strong activation of ABCA1 gene expression; plasma insulin levels during a glucose tolerance test ([5]; FIG. 8): used less insulin in response to the glucose injection; insulin sensitivity ([5]; concluded from glucose tolerance test): increase in insulin sensitivity

**Q.** For `CCCCCCCCCCCCCCCC(=O)OCC(COC(=O)CCCCCCCCCCCCCCC)OC(=O)CSCCCCCCCCCCCCCC` [Example 4g, 1,3-dipalmitoyl-2-tetradecylthioacetylglycerol], which plasma cholesterol ([6]; FIG. 9A) is on record?
**A.** decrease in circulating cholesterol and triglyceride levels

**Q.** And the plasma triglycerides ([6]; FIG. 9B)?
**A.** decrease in circulating cholesterol and triglyceride levels

**Q.** And the “hepatic expression of the ACO gene” value [7]?
**A.** marked activation of hepatic expression of the ACO gene
